The Kinase Knowledgebase extract (Sharma et al. 2016)
pIC50: −log10 of the molar value.

Biological target: PIK3CA (human) (UniProt P42336)
Assay: Assessment of PIK3CA Kinase Activity

PIK3CA (human), sequence (P42336 whole entry, looked up): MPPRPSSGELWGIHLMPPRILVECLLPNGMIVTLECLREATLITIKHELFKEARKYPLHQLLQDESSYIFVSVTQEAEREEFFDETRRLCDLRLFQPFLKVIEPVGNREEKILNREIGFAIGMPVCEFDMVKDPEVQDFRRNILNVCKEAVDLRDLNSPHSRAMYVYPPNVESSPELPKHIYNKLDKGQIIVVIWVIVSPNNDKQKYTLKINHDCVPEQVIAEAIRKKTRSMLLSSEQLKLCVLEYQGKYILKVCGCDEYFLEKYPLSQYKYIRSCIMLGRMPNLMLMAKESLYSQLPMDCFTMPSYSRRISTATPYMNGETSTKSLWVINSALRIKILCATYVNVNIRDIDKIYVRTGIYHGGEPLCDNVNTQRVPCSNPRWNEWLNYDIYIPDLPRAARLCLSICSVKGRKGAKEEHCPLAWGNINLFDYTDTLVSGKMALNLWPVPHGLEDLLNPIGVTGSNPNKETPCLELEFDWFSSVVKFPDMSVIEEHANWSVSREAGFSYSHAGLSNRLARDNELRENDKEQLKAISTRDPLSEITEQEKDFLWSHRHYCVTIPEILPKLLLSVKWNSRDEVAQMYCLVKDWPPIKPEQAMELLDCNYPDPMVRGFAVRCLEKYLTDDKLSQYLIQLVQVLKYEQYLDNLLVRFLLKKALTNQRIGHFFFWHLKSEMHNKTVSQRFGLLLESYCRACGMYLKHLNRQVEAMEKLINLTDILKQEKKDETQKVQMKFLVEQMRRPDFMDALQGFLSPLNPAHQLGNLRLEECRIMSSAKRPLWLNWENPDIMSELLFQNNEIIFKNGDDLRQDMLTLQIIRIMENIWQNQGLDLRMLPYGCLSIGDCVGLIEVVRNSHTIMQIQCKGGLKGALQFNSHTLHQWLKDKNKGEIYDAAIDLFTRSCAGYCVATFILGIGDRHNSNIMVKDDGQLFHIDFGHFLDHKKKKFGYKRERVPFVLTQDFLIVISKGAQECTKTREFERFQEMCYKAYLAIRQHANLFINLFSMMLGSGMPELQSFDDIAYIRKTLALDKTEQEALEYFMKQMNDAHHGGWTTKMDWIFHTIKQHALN

## COC(=O)C(C)Cn1cc(-c2ccc3c(c2)OCCn2cc(-c4nc(C)nn4C(C)C)nc2-3)cn1 (configuration not stated)
  pIC50: > 6.00

## CC(C)n1ncnc1-c1cn2c(n1)-c1ccc(N3CCCCC3C(N)=O)cc1OCC2 (configuration not stated)
  pIC50: > 6.00

## CC(C)n1ncnc1-c1cn2c(n1)-c1cnc(NCC(N)=O)cc1OCC2
  pIC50: > 6.00

## CC(C)n1nc(CO)nc1-c1cn2c(n1)-c1ccccc1OCC2
  pIC50: > 6.00

## CC(C)n1ncnc1-c1cn2c(n1)-c1ccc(C3CCN(CC(C)(C)O)CC3)cc1OCC2
  pIC50: > 6.00

## CC(C)n1nc(N)nc1-c1cn2c(n1)-c1cc(F)ccc1OCC2
  pIC50: > 6.00

## CC(C)n1ncnc1-c1cn2c(n1)-c1ccc(-c3cncn3C3CCCCO3)cc1OCC2 (configuration not stated)
  pIC50: > 6.00

## CC(C)n1ncnc1-c1cn2c(n1)-c1ccc(C3CN(CC(N)=O)C3)cc1OCC2
  pIC50: > 6.00

## CCOC(=O)C(C)(C)n1cc(-c2ccc3c(c2)OCCn2cc(-c4nc(C)nn4C(C)C)nc2-3)cn1
  pIC50: > 6.00

## CC(C)n1ncnc1-c1cc2n(n1)-c1cc(C3CN(Cc4ccncc4)C3)ccc1OCC2
  pIC50: > 6.00

## CC(C)n1ncnc1-c1cn2c(n1)-c1ccc(-c3cn(CCO)cn3)cc1OCC2
  pIC50: > 6.00

## CC(C)n1ncnc1-c1cn2c(n1)-c1cnc(N3C[C@H](O)C[C@H]3C(N)=O)cc1OCC2
  pIC50: > 6.00

## Nc1nc(-c2cn3c(n2)-c2cc(-c4ccccc4)ccc2OCC3)n(-c2ccccc2Cl)n1
  pIC50: > 6.00

## Cc1nc(-c2cn3c(n2)-c2ccc(C4CCN(C(C)(C)C(N)=O)CC4)cc2OCC3)n(C(C)C)n1
  pIC50: > 6.00

## O=C(Nc1cn[nH]c1)c1ccc2c(c1)-n1nc(-c3ncnn3CC(F)(F)F)cc1CCO2
  pIC50: > 6.00

## CC(C)n1ncnc1-c1cn2c(n1)-c1ccc(-c3ccccc3C(N)=O)cc1OCC2
  pIC50: > 6.00

## CC(C)n1ncnc1-c1cn2c(n1)-c1cc(C(N)=O)ccc1OCC2
  pIC50: > 6.00

## Cc1nc(-c2ccc3c(c2)OCCn2cc(-c4ncnn4C(C)C)nc2-3)cn1CCO
  pIC50: > 6.00

## NC(=O)c1ccc2c(c1)OCCn1cc(-c3ncnn3-c3ccccc3Cl)nc1-2
  pIC50: > 6.00

## CC(C)n1ncnc1-c1cn2c(n1)-c1cc(NCC(O)CO)ncc1OCC2 (configuration not stated)
  pIC50: > 6.00

## COCCN1CCC(c2ccc3c(c2)OCCn2cc(-c4ncnn4C(C)C)nc2-3)CC1
  pIC50: > 6.00

## CC(C)(CO)NC(=O)c1ccc2c(c1)-c1nc(-c3ncnn3C3CCS(=O)(=O)C3)cn1CCO2 (configuration not stated)
  pIC50: > 6.00

## CC(C)n1ncnc1-c1cn2c(n1)-c1ccc(C3=C(C(N)=O)CN(C)CC3)cc1OCC2
  pIC50: > 6.00

## CC(Cc1ccc2c(c1)OCCn1cc(-c3ncnn3C(C)C)nc1-2)C(N)=O (configuration not stated)
  pIC50: > 6.00

## CC(C)n1ncnc1-c1cn2c(n1)-c1ccc(O[C@@H](CO)C(N)=O)cc1OCC2
  pIC50: > 6.00

## O=C(c1ccc2c(c1)-c1nc(-c3ncnn3-c3ccc(F)cc3F)cn1CCO2)N1CCN(CCO)CC1
  pIC50: > 6.00

## NC(=O)[C@@H]1CCN1c1ccc2c(c1)OCCn1cc(-c3ncnn3CC(F)(F)F)nc1-2
  pIC50: > 6.00

## CC(C)n1ncnc1-c1cc2n(n1)-c1cc(C(=O)NCC(C)(C)O)ccc1OCC2
  pIC50: > 6.00

## CC(C)n1ncnc1-c1cn2c(n1)-c1ccc(-c3cn(CC(C)(C)O)cn3)cc1OCC2
  pIC50: > 6.00

## C[C@H](Oc1ccc2c(c1)OCCn1cc(-c3ncnn3-c3ccc(F)cc3F)nc1-2)C(N)=O
  pIC50: > 6.00

## Cc1nc(-c2cn3c(n2)-c2cnc(N4C[C@@H](F)C[C@H]4C(N)=O)cc2OCC3)n(C(C)C)n1
  pIC50: > 6.00

## Cc1nc(-c2cn3c(n2)-c2ccc(F)cc2OCC3)n(C(C)C)n1
  pIC50: > 6.00

## Cc1nc(-c2cn3c(n2)-c2ccc(-c4cnc(N(C)C)nc4)cc2OCC3)n(C(C)C)n1
  pIC50: > 6.00

## NC(=O)[C@@H]1CCCN1c1cc2c(cn1)-c1nc(-c3ncnn3C3CCCCC3)cn1CCO2
  pIC50: > 6.00

## CC(C)n1ncnc1-c1cn2c(n1)-c1ccc(C3CCN(CC(N)=O)CC3)cc1OCC2
  pIC50: > 6.00

## CS(=O)(=O)CCNC(=O)c1ccc2c(c1)-c1nc(-c3ncnn3CC(F)(F)F)cn1CCO2
  pIC50: > 6.00

## COc1cc2c(cn1)-c1nc(-c3ncnn3C(C)C)cn1CCO2
  pIC50: > 6.00

## CC(C)n1ncnc1-c1cn2c(n1)-c1ccc(CN(C)C(N)=O)cc1OCC2
  pIC50: > 6.00

## CC(C)n1ncnc1-c1cn2c(n1)-c1ccc(-c3cn(C)c(CC(C)(C)O)n3)cc1OCC2
  pIC50: > 6.00

## CC(=O)Nc1ccc(-c2ccc3c(c2)OCCn2cc(-c4nc(C)nn4C(C)C)nc2-3)cn1
  pIC50: > 6.00

## CC(C)n1ncnc1-c1cn2c(n1)-c1cnc(N3CC[C@H](C#N)C3)cc1OCC2
  pIC50: > 6.00

## CC(C)(CO)NC(=O)c1ccc2c(c1)-c1nc(-c3ncnn3CC(F)(F)F)cn1CCO2
  pIC50: > 6.00

## Cc1nc(-c2cn3c(n2)-c2ccc(-c4cnn(CC(C)C(=O)O)c4)cc2OCC3)n(C(C)C)n1 (configuration not stated)
  pIC50: > 6.00

## O=c1[nH]cccc1-c1ccc2c(c1)-c1nc(-c3ncnn3CC(F)(F)F)cn1CCO2
  pIC50: > 6.00

## Cc1nc(-c2cn3c(n2)-c2cnc(N4CCC[C@H]4C(N)=O)cc2OCC3)n(CC(F)(F)F)n1
  pIC50: > 6.00

## O=C1CCCN1CCNc1cc2c(cn1)-c1nc(-c3ncnn3-c3ccc(F)cc3F)cn1CCO2
  pIC50: > 6.00

## CC(C)n1ncnc1-n1cc2c(n1)-c1ccc(-c3cnn(CCO)c3)cc1OCC2
  pIC50: > 6.00

## Fc1ccc(-n2ncnc2-n2cc3c(n2)-c2ccc(Br)cc2OCC3)c(F)c1
  pIC50: 7.24

## CC(C)n1ncnc1-c1cn2c(n1)-c1cnc(N3CCC[C@@H]3C(N)=O)cc1OCC2
  pIC50: > 6.00

## CC(C)n1ncnc1-c1cn2c(n1)-c1ccc(C3CCN(CCS(C)(=O)=O)CC3)cc1OCC2
  pIC50: > 6.00

## COC(=O)c1ccc2c(c1)OCCn1cc(-c3cccc(C(F)(F)F)c3)nc1-2
  pIC50: > 6.00

## CC(C)n1ncnc1-c1cn2c(n1)-c1cnc(N3CC[C@@H](O)C3)cc1OCC2
  pIC50: > 6.00

## CC(C)n1ncnc1-c1cn2c(n1)-c1ccc(C3CN(C(=O)C4(N)CC4)C3)cc1OCC2
  pIC50: > 6.00

## Cc1nc(-c2cn3c(n2)-c2cnc(N4CC[C@H](O)[C@H]4C(N)=O)cc2OCC3)n(C(C)C)n1
  pIC50: > 6.00

## Nc1nc(-c2cn3c(n2)-c2ccc(-c4ccc(Cl)cc4)cc2OCC3)n(-c2ccccc2Cl)n1
  pIC50: > 6.00

## CC(C)n1nc(CO)nc1-c1cn2c(n1)-c1ccc(-c3cnn(CC(C)(C)O)c3)cc1OCC2
  pIC50: > 6.00

## CC(C)n1ncnc1-c1cn2c(n1)-c1ccc(C3CCN(CCO)CC3)cc1OCC2
  pIC50: > 6.00

## CNC(=O)c1ccc2c(c1)OCCn1cc(-c3ncnn3-c3ccccc3Cl)nc1-2
  pIC50: > 6.00

## CC(C)C(Oc1ccc2c(c1)OCCn1cc(-c3ncnn3C(C)C)nc1-2)C(N)=O (configuration not stated)
  pIC50: > 6.00

## Cc1nc(-c2cn3c(n2)-c2ccc(-c4cnn(CC(C)(C)O)c4)cc2OCC3)n(C(C)C)n1
  pIC50: > 6.00

## CC(C)n1ccnc1-c1cn2c(n1)-c1ccc(-c3cnn(CC(C)(C)O)c3)cc1OCC2
  pIC50: > 6.00

## CC(C)n1ncnc1-c1cn2c(n1)-c1cnc(OCC(N)=O)cc1OCC2
  pIC50: > 6.00

## Cc1nc(-c2cn3c(n2)-c2cc(C#N)ccc2OCC3)n(C(C)C)n1
  pIC50: > 6.00

## COc1ccc2c(c1)OCCn1cc(-c3ncnn3C(C)C)nc1-2
  pIC50: > 6.00

## Oc1ccc2c(c1)OCCn1cc(-c3ncnn3CC(F)(F)F)nc1-2
  pIC50: > 6.00

## CC(C)n1nc(N)nc1-c1cn2c(n1)-c1ccc(-c3cncc(F)c3)cc1OCC2
  pIC50: > 6.00

## CC(C)n1nc(N)nc1-c1cn2c(n1)-c1cc(-c3ccc(Cl)cc3)ccc1OCC2
  pIC50: > 6.00

## CC(C)n1ncnc1-c1cn2c(n1)-c1ccc(N3CC[C@H]3C(N)=O)cc1OCC2
  pIC50: > 6.00

## CN(C)c1cc2c(cn1)-c1nc(-c3ncnn3-c3ccccc3Cl)cn1CCO2
  pIC50: > 6.00

## CC(C)[C@H](Oc1ccc2c(c1)OCCn1cc(-c3ncnn3CC(F)(F)F)nc1-2)C(N)=O
  pIC50: > 6.00

## Cc1nc(-c2ccc3c(c2)OCCn2cc(-c4ncnn4C(C)C)nc2-3)cn1C
  pIC50: > 6.00

## CC(C)n1ncnc1-c1cn2c(n1)-c1ccc(C3CCN(CC(=O)N(C)C)CC3)cc1OCC2
  pIC50: > 6.00

## N#Cc1ccc2c(c1)OCCn1cc(-c3nc(N)nn3CC(F)(F)F)nc1-2
  pIC50: > 6.00

## CC(C)n1ncnc1-c1cn2c(n1)-c1ccc(N3CC(N)(CO)C3)cc1OCC2
  pIC50: > 6.00

## CC(C)n1nc(N)nc1-c1cn2c(n1)-c1ccc(C#N)cc1OCC2
  pIC50: > 6.00

## COCc1nc(-c2cn3c(n2)-c2ccc(-c4cnn(CC(C)(C)O)c4)cc2OCC3)n(C(C)C)n1
  pIC50: > 6.00

## CC(C)n1ncnc1-c1cn2c(n1)-c1ccc(-c3cnn(C(C)(C)C(N)=O)c3)cc1OCC2
  pIC50: > 6.00

## CC(C)(CO)NC(=O)c1ccc2c(c1)-c1nc(-c3ncnn3-c3ccccc3Cl)cn1CCO2
  pIC50: > 6.00

## CC(C)NC(=O)CN1CCN(c2cc3c(cn2)-c2nc(-c4ncnn4C(C)C)cn2CCO3)CC1
  pIC50: > 6.00

## CC(C)n1ncnc1-c1cn2c(n1)-c1ccc(-c3cnc[nH]3)cc1OCC2
  pIC50: > 6.00

## CC(C)n1ncnc1-c1cn2c(n1)-c1ccc([C@H]3CCNC[C@@H]3O)cc1OCC2
  pIC50: > 6.00

## CCCC(Oc1ccc2c(c1)OCCn1cc(-c3ncnn3C(C)C)nc1-2)C(N)=O (configuration not stated)
  pIC50: > 6.00

## CC(C)C(Oc1ccc2c(c1)OCCn1cc(-c3ncnn3CC(F)(F)F)nc1-2)C(N)=O (configuration not stated)
  pIC50: > 6.00

## COCc1nc(-c2cn3c(n2)-c2ccc(C)cc2OCC3)n(C(C)C)n1
  pIC50: > 6.00

## CC(C)n1ncnc1-c1cn2c(n1)-c1cnc(N3CCNC(=O)C3)cc1OCC2
  pIC50: > 6.00

## Cc1nc(-c2cn3c(n2)-c2ccc(N)cc2OCC3)n(C(C)C)n1
  pIC50: > 6.00

## CC(C)n1ncnc1-c1cn2c(n1)-c1cnc(N3CCN(CC(=O)N(C)C)CC3)cc1OCC2
  pIC50: > 6.00

## NC(=O)[C@@H]1CNCCN1c1ccc2c(c1)OCCn1cc(-c3ncnn3CC(F)(F)F)nc1-2
  pIC50: > 6.00

## CC(C)N1CCC(c2ccc3c(c2)OCCn2cc(-c4ncnn4C(C)C)nc2-3)C(C(N)=O)C1 (configuration not stated)
  pIC50: > 6.00

## CC(C)n1ncnc1-c1cn2c(n1)-c1cnc(N3CCCC3)cc1OCC2
  pIC50: > 6.00

## CC(C)n1ncnc1-c1cn2c(n1)-c1cnc(Cl)cc1OCC2
  pIC50: > 6.00

## CC(C)n1ncnc1-c1cn2c(n1)-c1ccc(CC(=O)O)cc1OCC2
  pIC50: > 6.00

## Nc1nc(-c2cn3c(n2)-c2cc(C4CC4)ccc2OCC3)n(CC(F)(F)F)n1
  pIC50: > 6.00

## CC(C)n1ncnc1-c1cn2c(n1)-c1ccc(N3C[C@@H](F)C[C@H]3C(N)=O)cc1OCC2
  pIC50: > 6.00

## CNc1cc2c(cn1)-c1nc(-c3ncnn3C(C)C)cn1CCO2
  pIC50: > 6.00

## NC(=O)[C@@H]1COCCN1c1ccc2c(c1)OCCn1cc(-c3ncnn3CC(F)(F)F)nc1-2
  pIC50: > 6.00

## CC(C)n1ncnc1-c1cn2c(n1)-c1ccc(C(=O)NCCS(C)(=O)=O)cc1OCC2
  pIC50: > 6.00
